Laboratory results taken from publication PMC4490784, “Compensatory induction of MYC expression by sustained CDK9 inhibition via a BRD4-dependent mechanism” (eLife, 2015).

Key:
Assay in all cases: KINOMEscan binding assay
EGFR = biological target: T1, EGFR (Homo sapiens, UniProt P00533)
T1 construct: purchased DiscoveRx KINOMEscan
Description: (§1) As there are no commercial or in-house kinase assays available for CDK3, CDK5, CDK11 and CDK13, the inhibitory abilities of i-CDK9 toward these CDKs were thus evaluated in the DiscoveRx KINOMEscan assay, which is based on a proprietary active site-directed competition-binding platform ([Fabian et al., 2005]).
(§2) The inhibitory activity of i-CDK9 for CDK1-CycB (Upstate/Millipore), CDK2-CycA (Invitrogen), CDK4-CycD1 (Novartis), CDK7-CycH-MAT1 (Invitrogen), and CDK9-CycT1 (Invitrogen) was assessed in the AlphaScreen (PerkinElmer, Inc)-based kinase assay developed at Novartis. Briefly, each CDK–cyclin pair was pre-incubated with i-CDK9 for 15 min, followed by addition of kinase substrates (ELK for CDK1 and CDK2, RB for CDK4, and CDK7tide for CDK7 and CDK9). The mixture was incubated at room temperature for additional 4–5 hr. The reaction was stopped and read on Envision (PerkinElmer, Inc). Selectivity against a large panel of over 400 kinases was evaluated using the KINOMEscan platform (DiscoveRx, CA) employing a proprietary active site-directed competition binding assay ([Fabian et al., 2005]). The assay was conducted at two different concentrations of i-CDK9 (1 and 10 µM) by DiscoveRx.

EPHB4 = biological target: T2, EPHB4 (Homo sapiens, UniProt P54760); conditions: read-out: % Retention on Solid Support
T2 construct: purchased DiscoveRx KINOMEscan
T2 sequence (P54760 16-987): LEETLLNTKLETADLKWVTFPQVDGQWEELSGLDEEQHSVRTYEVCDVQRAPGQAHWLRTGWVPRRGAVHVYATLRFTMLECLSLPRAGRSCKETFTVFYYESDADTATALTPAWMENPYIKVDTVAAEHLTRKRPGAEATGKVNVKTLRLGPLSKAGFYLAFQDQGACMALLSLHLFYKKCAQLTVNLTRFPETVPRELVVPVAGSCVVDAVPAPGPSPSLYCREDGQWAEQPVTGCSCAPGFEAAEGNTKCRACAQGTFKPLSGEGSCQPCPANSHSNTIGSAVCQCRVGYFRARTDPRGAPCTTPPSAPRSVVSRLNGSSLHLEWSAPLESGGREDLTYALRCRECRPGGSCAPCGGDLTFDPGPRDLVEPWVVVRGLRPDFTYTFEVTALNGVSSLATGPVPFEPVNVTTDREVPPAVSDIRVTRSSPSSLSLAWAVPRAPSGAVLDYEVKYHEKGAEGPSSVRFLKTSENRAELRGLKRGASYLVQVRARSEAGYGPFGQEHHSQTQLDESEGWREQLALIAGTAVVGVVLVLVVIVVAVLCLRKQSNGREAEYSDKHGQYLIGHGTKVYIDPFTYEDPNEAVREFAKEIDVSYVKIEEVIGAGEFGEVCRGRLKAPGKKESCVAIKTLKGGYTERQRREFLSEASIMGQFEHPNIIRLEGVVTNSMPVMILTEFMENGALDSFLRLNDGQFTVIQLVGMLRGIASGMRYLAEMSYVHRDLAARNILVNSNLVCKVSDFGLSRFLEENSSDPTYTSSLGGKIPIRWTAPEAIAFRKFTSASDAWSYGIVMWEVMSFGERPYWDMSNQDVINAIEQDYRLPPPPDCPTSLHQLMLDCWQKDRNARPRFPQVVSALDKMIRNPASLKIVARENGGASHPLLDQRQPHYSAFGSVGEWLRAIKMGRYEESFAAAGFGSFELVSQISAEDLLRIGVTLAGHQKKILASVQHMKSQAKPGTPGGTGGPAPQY
Description: as §1, §2

[1] = biological target: T3, ABL1(F317I)-phosphorylated (Homo sapiens, UniProt P00519, F317I); conditions: 1 µM i-CDK9; read-out: % Retention on Solid Support
T3 construct: purchased DiscoveRx KINOMEscan
Description: as §1, §2

MARK1 = biological target: T4, MARK1 (Homo sapiens, UniProt Q9P0L2); conditions: read-out: % Retention on Solid Support
T4 construct: purchased DiscoveRx KINOMEscan
T4 sequence (Q9P0L2 whole entry): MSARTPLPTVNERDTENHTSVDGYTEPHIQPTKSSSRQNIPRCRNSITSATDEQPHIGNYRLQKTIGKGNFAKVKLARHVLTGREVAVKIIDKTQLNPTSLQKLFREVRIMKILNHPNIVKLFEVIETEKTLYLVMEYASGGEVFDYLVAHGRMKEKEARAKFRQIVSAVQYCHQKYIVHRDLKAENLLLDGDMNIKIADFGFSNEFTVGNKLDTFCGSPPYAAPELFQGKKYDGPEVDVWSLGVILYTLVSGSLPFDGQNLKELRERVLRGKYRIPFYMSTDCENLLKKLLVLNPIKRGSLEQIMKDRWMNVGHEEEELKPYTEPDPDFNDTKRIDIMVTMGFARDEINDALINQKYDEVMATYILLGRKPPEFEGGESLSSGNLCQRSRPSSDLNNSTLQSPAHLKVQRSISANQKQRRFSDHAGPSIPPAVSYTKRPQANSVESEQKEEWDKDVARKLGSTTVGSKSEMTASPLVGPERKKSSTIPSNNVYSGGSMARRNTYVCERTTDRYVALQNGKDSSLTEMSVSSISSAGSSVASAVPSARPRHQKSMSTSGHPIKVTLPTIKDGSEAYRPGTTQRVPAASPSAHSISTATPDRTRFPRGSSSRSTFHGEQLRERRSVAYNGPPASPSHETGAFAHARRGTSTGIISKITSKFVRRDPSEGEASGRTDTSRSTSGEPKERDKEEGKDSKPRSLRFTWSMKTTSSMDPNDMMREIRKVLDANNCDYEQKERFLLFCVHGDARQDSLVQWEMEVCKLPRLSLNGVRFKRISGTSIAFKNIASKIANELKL
Description: as §1, §2

MAST1 = biological target: T5, MAST1 (Homo sapiens, UniProt Q9Y2H9); conditions: read-out: % Retention on Solid Support
T5 construct: purchased DiscoveRx KINOMEscan
Description: as §1, §2

[2] = biological target: T6, ABL1(E255K)-phosphorylated (Homo sapiens, UniProt P00519, E255K); conditions: 1 µM i-CDK9; read-out: % Retention on Solid Support
T6 construct: purchased DiscoveRx KINOMEscan
Description: as §1, §2

TYRO3 = biological target: T7, TYRO3 (Homo sapiens, UniProt Q06418); conditions: read-out: % Retention on Solid Support
T7 construct: purchased DiscoveRx KINOMEscan
Description: as §1, §2

SIK2 = biological target: T8, SIK2 (Homo sapiens, UniProt Q9H0K1); conditions: read-out: % Retention on Solid Support
T8 construct: purchased DiscoveRx KINOMEscan
T8 sequence (Q9H0K1 whole entry): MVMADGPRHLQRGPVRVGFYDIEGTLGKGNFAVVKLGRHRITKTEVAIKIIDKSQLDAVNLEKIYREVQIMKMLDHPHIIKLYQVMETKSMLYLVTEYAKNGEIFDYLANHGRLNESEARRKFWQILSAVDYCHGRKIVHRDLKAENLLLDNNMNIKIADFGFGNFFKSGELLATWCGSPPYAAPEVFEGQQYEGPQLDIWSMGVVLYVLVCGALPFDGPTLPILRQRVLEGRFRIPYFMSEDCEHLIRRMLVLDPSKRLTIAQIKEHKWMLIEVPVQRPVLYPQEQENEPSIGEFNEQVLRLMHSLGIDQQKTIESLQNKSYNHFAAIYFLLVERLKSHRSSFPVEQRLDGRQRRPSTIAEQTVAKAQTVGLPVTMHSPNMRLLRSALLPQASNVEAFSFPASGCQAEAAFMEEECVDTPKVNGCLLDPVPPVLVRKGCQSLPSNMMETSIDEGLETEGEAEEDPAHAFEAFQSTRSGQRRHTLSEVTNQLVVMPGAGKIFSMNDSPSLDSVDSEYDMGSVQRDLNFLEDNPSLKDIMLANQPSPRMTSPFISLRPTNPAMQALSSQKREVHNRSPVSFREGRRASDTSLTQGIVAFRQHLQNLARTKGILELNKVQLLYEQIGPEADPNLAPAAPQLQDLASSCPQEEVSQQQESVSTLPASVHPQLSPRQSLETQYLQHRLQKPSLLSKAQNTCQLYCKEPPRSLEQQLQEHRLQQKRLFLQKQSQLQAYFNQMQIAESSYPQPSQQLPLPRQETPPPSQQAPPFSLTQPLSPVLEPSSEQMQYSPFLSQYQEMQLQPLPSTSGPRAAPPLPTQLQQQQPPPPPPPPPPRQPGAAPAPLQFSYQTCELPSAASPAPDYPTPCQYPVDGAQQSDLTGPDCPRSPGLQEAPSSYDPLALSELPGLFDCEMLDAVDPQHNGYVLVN
Description: as §1, §2

ERN1 = biological target: T9, ERN1 (Homo sapiens, UniProt O75460); conditions: read-out: % Retention on Solid Support
T9 construct: purchased DiscoveRx KINOMEscan
Description: as §1, §2

TSSK1B = biological target: T10, TSSK1B (Homo sapiens, UniProt Q9BXA7); conditions: read-out: % Retention on Solid Support
T10 construct: purchased DiscoveRx KINOMEscan
Description: as §1, §2

CAMKK2 = biological target: T11, CAMKK2 (Homo sapiens, UniProt Q96RR4); conditions: read-out: % Retention on Solid Support
T11 construct: purchased DiscoveRx KINOMEscan
T11 sequence (Q96RR4 whole entry): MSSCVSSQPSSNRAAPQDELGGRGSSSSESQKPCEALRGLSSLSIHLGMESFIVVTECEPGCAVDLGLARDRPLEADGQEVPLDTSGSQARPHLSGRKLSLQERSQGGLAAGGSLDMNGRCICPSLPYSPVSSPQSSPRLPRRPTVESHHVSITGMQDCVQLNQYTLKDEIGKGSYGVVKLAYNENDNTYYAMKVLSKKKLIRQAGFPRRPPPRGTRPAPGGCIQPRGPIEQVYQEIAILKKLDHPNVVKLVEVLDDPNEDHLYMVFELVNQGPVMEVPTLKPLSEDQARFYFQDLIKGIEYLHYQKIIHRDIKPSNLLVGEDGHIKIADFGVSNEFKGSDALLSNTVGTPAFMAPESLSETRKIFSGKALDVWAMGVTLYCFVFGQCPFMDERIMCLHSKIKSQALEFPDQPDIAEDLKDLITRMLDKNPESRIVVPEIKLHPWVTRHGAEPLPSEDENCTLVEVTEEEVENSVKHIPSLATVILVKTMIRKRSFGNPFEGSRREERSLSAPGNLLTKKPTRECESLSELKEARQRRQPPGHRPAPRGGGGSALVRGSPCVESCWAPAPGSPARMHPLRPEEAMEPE
Description: as §1, §2

LIMK2 = biological target: T12, LIMK2 (Homo sapiens, UniProt P53671); conditions: read-out: % Retention on Solid Support
T12 construct: purchased DiscoveRx KINOMEscan
T12 sequence (P53671 whole entry): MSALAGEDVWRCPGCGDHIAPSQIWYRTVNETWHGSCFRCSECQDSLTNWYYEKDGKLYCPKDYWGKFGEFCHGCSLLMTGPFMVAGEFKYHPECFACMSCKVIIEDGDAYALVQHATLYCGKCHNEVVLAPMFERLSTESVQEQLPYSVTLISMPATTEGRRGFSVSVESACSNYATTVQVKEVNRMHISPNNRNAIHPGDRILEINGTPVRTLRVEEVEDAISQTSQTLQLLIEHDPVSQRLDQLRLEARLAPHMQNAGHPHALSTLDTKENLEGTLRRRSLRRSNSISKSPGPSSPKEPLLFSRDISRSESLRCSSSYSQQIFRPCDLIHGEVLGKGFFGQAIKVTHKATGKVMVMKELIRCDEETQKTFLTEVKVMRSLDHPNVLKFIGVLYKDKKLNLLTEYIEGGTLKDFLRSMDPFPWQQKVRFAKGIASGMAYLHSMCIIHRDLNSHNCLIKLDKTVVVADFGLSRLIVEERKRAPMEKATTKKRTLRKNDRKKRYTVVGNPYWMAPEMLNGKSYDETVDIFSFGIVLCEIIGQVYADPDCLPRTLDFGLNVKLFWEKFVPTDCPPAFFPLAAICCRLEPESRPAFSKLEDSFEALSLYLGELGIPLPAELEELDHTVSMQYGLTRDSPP
Description: as §1, §2

[3] = biological target: T13, RSK2(Kin.Dom.1-N-terminal) (Homo sapiens, UniProt P51812); conditions: read-out: % Retention on Solid Support
T13 construct: RSK2(Kin.Dom.1-N-terminal); purchased DiscoveRx KINOMEscan
Description: as §1, §2

AURKB = biological target: T14, AURKB (Homo sapiens, UniProt Q96GD4); conditions: read-out: % Retention on Solid Support
T14 construct: purchased DiscoveRx KINOMEscan
Description: as §1, §2

[4] = biological target: T15, ABL1(H396P)-phosphorylated (Homo sapiens, UniProt P00519, H396P); conditions: 1 µM i-CDK9; read-out: % Retention on Solid Support
T15 construct: purchased DiscoveRx KINOMEscan
Description: as §1, §2

AXL = biological target: T16, AXL (Homo sapiens, UniProt P30530); conditions: read-out: % Retention on Solid Support
T16 construct: purchased DiscoveRx KINOMEscan
T16 sequence (P30530 26-894): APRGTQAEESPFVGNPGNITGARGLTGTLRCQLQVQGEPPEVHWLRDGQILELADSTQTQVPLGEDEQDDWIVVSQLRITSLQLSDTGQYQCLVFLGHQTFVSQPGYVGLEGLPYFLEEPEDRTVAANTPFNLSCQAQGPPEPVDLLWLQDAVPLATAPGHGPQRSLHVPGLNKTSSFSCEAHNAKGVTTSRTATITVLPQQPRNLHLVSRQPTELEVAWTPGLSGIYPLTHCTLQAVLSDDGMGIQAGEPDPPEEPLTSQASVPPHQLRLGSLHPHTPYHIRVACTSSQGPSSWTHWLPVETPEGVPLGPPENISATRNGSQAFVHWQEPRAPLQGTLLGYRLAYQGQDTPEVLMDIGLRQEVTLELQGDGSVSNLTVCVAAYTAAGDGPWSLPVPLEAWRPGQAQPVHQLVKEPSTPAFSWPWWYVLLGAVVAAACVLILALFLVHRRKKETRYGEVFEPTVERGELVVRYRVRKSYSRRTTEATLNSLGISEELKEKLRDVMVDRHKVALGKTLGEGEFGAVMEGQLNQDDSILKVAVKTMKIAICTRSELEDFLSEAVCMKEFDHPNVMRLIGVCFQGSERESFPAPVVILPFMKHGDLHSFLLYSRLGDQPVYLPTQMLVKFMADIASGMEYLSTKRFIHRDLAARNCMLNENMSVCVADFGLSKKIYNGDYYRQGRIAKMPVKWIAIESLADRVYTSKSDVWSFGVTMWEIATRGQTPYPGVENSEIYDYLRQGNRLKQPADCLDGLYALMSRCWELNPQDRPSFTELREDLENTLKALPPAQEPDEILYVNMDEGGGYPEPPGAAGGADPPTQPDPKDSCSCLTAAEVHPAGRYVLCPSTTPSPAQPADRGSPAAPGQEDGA
Description: as §1, §2

MELK = biological target: T17, MELK (Homo sapiens, UniProt Q14680); conditions: read-out: % Retention on Solid Support
T17 construct: purchased DiscoveRx KINOMEscan
Description: as §1, §2

CLK2 = biological target: T18, CLK2 (Homo sapiens, UniProt P49760); conditions: read-out: % Retention on Solid Support
T18 construct: purchased DiscoveRx KINOMEscan
Description: as §1, §2

S6K1 = S6K1 (Homo sapiens, UniProt P23443); conditions: 1 µM i-CDK9; read-out: % Retention on Solid Support
Description: as §1, §2

T1 sequence (P00533 25-1210): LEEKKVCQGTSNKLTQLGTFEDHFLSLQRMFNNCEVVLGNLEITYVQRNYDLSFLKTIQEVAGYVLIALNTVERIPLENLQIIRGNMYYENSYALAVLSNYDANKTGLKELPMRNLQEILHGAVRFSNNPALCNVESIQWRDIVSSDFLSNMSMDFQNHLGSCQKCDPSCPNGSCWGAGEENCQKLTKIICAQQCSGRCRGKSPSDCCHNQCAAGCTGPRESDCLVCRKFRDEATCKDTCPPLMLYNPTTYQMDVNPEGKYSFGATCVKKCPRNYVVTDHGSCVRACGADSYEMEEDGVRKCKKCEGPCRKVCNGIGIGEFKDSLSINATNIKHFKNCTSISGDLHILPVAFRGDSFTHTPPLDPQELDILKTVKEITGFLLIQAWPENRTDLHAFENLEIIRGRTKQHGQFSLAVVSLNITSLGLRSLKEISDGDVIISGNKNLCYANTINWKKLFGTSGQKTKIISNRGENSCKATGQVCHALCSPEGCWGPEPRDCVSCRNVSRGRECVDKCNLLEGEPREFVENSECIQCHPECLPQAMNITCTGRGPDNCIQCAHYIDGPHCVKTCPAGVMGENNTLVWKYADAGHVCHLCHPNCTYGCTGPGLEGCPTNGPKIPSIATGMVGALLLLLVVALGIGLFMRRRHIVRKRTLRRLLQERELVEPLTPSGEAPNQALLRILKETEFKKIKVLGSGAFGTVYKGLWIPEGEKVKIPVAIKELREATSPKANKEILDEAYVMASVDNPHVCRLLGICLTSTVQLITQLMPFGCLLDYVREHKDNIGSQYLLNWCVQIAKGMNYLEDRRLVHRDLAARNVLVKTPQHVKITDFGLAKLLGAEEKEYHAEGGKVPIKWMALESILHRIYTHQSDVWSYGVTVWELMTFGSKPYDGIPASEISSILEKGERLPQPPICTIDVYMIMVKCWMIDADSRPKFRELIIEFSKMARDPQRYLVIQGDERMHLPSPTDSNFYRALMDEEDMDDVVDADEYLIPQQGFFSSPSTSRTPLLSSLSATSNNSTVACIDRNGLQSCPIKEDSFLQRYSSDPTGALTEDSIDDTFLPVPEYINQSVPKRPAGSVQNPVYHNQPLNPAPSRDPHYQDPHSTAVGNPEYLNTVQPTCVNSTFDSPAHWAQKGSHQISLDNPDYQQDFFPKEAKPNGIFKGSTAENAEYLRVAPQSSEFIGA

**Q.** What does the source list for N[C@H]1CC[C@H](Nc2cc(-c3cccc(NCc4cccc(F)c4)n3)c(Cl)cn2)CC1 [i-CDK9, N2′-(trans-4-aminocyclohexyl)-5′-chloro-N6-(3-fluorobenzyl)-2,4′-bipyridine-2′,6-diamine]?
**A.** % Retention on Solid Support (EGFR; 1 µM i-CDK9): 4.7%; % Retention on Solid Support (EGFR; 10 µM i-CDK9): 100%; remaining binding at 1 µM (EPHB4; 1 µM i-CDK9): 100%; remaining binding at 10 µM (EPHB4; 10 µM i-CDK9): 100%; remaining binding at 1 µM [1]: 100%; remaining binding at 1 µM (MARK1; 1 µM i-CDK9): 99%; remaining binding at 10 µM (MARK1; 10 µM i-CDK9): 100%; remaining binding at 1 µM (MAST1; 1 µM i-CDK9): 100%; remaining binding at 10 µM (MAST1; 10 µM i-CDK9): 82%; remaining binding at 1 µM [2]: 74%; remaining binding at 1 µM (TYRO3; 1 µM i-CDK9): 71%; remaining binding at 10 µM (TYRO3; 10 µM i-CDK9): 100%; remaining binding at 1 µM (SIK2; 1 µM i-CDK9): 90%; remaining binding at 10 µM (SIK2; 10 µM i-CDK9): 64%; remaining binding at 1 µM (ERN1; 1 µM i-CDK9): 100%; remaining binding at 10 µM (ERN1; 10 µM i-CDK9): 62%; remaining binding at 1 µM (TSSK1B; 1 µM i-CDK9): 99%; remaining binding at 10 µM (TSSK1B; 10 µM i-CDK9): 68%; remaining binding at 1 µM (CAMKK2; 1 µM i-CDK9): 73%; remaining binding at 10 µM (CAMKK2; 10 µM i-CDK9): 100%; remaining binding at 1 µM (LIMK2; 1 µM i-CDK9): 100%; remaining binding at 10 µM (LIMK2; 10 µM i-CDK9): 100%; remaining binding at 1 µM ([3]; 1 µM i-CDK9): 86%; remaining binding at 10 µM ([3]; 10 µM i-CDK9): 76%; remaining binding at 1 µM (AURKB; 1 µM i-CDK9): 72%; remaining binding at 10 µM (AURKB; 10 µM i-CDK9): 91%; remaining binding at 1 µM [4]: 92%; remaining binding at 1 µM (AXL; 1 µM i-CDK9): 89%; remaining binding at 10 µM (AXL; 10 µM i-CDK9): 80%; remaining binding at 1 µM (MELK; 1 µM i-CDK9): 100%; remaining binding at 10 µM (MELK; 10 µM i-CDK9): 95%; remaining binding at 1 µM (CLK2; 1 µM i-CDK9): 61%; remaining binding at 10 µM (CLK2; 10 µM i-CDK9): 26%; remaining binding at 1 µM (S6K1): 100%
